Measurements from US4010268A, “Derivatives of hexahydrodibenzofuran-3-one, their preparation and use in pharmaceutical compositions” (Roussel-UCLAF, priority 1974, dated 1977).
Structures can show the parent of a compound that is named as a salt.

Key:
[1] = test system: cough experimentally induced by electric stimulation of the vagus nerve in the guinea pig; test: Antitussive activity: cough induced by electric stimulation of the vagus nerve; type: in vivo; settings: for inhibition in vivo at 100 mg/kg / ED50: Cavia porcellus; for inhibition in vivo at 100 mg/kg: 100 mg/kg oral, stimulus 20 and 40 minutes after administration, 6 negative responses = 100%, groups of 6 guinea pigs, read-out: Percentage cough inhibition; for ED50: guinea pig, oral, vagus nerve stimulation, read-out: ED50 (dose which reduces the number of coughs by 50%); for antitussive activity (in words): conclusion from Table 3 results
Protocol: The test consists of stimulating the vagus nerve of the guinea pig and repeating the stimulus 20 and 40 minutes after oral administration of 100 mg/kg of the product under test. 6 Negative responses (3 after 20 minutes and 3 after 40 minutes) represent a cough inhibition of 100%. The test was carried out in groups of 6 animals against groups of control animals (undosed).
In addition, for certain compounds the ED50 was also determined, i.e. that dose which reduces the number of coughs by 50%.

Acute toxicity, oral = settings: guinea pig, in vivo; guinea pigs, increasing oral dose
Protocol: The acute toxicity of some of compounds of the invention was determined on guinea pigs which had received an increasing oral dose of the compound.

Cc1ccc2c(c1)[C@@]1(C)CCC(=O)[C@@H](NC(=O)CCN3CCN(C)CC3)[C@H]1O2 (relative stereo) [Example 1, 8,9bβ-dimethyl-1,2,3,4,4aβ,9b-hexahydro-4α-[3-(4-methylpiperazin-1-yl)-propionamido]-dibenzofuran-3-one dihydrochloride]
inhibition in vivo at 100 mg/kg [1]: 100% | ED50 [1]: 32.5 mg/kg | antitussive activity (in words) [1]: important antitussive activity | LD50 (Acute toxicity, oral): 1480 mg/kg

Cc1ccc2c(c1)[C@@]1(C)CCC(=O)[C@@H](NC(=O)CN3CCN(C)CC3)[C@H]1O2 (relative stereo) [Example 4]
inhibition in vivo at 100 mg/kg [1]: 43% | LD50 (Acute toxicity, oral): > 800 mg/kg

Cc1ccc2c(c1)[C@@]1(C)CCC(=O)[C@@H](NC(=O)CN3CCCC3)[C@H]1O2 (relative stereo) [Example 7]
inhibition in vivo at 100 mg/kg [1]: 17% | LD50 (Acute toxicity, oral): ~800 mg/kg

CCN(CC(=O)N[C@@H]1C(=O)CC[C@]2(C)c3cc(C)ccc3O[C@H]12)Cc1ccccc1 (relative stereo) [Example 8]
LD50 (Acute toxicity, oral): > 800 mg/kg

Cc1ccc2c(c1)[C@@]1(C)CCC(=O)[C@@H](NC(=O)CCN3CCOCC3)[C@H]1O2 (relative stereo) [Example 9]
inhibition in vivo at 100 mg/kg [1]: 39%

Cc1ccc2c(c1)[C@@]1(C)CCC(=O)[C@@H](NC(=O)CCN(C)C)[C@H]1O2 (relative stereo) [Example 10, 8,9bβ-dimethyl-1,2,3,4,4aβ,9b-hexahydro-4α-[3-N,N-dimethylamino-propionamido]-dibenzofuran-3-one]
inhibition in vivo at 100 mg/kg [1]: 89% | antitussive activity (in words) [1]: important antitussive activity | LD50 (Acute toxicity, oral): 500 to 1000 mg/kg

Cc1ccc2c(c1)[C@@]1(C)CCC(=O)[C@@H](NC(=O)CCN3CCCC3)[C@H]1O2 (relative stereo) [Example 11]
inhibition in vivo at 100 mg/kg [1]: 44% | LD50 (Acute toxicity, oral): ~600 mg/kg

Cc1ccc2c(c1)[C@@]1(C)CCC(=O)[C@@H](NC(=O)CCN3CCCCC3)[C@H]1O2 (relative stereo) [Example 12]
inhibition in vivo at 100 mg/kg [1]: 46% | LD50 (Acute toxicity, oral): ~400 mg/kg

Cc1ccc2c(c1)[C@@]1(C)CCC(=O)[C@@H](NC(=O)CCN3CCNCC3)[C@H]1O2 (relative stereo) [Example 13, 8,9bβ-1,2,3,4,4aβ,9b-hexahydro-4α-[3-piperazinopropionamido]-dibenzofuran-3-one]
inhibition in vivo at 100 mg/kg [1]: 75% | LD50 (Acute toxicity, oral): > 1000 mg/kg

CCOC(=O)N1CCN(CCC(=O)N[C@@H]2C(=O)CC[C@]3(C)c4cc(C)ccc4O[C@H]23)CC1 (relative stereo) [Example 14]
inhibition in vivo at 100 mg/kg [1]: 33% | LD50 (Acute toxicity, oral): > 1000 mg/kg

Cc1ccc2c(c1)[C@@]1(C)CCC(=O)[C@@H](NC(=O)CCN3CCN(c4ccccc4)CC3)[C@H]1O2 (relative stereo) [Example 15]
inhibition in vivo at 100 mg/kg [1]: 54%

Cc1ccc2c(c1)[C@@]1(C)CCC(=O)[C@@H](NC(=O)CCN3CCN(CCO)CC3)[C@H]1O2 (relative stereo) [Example 16]
inhibition in vivo at 100 mg/kg [1]: 17%

Cc1ccc2c(c1)[C@@]1(C)CCC(=O)[C@@H](NC(=O)CCN3CCN(Cc4ccccc4)CC3)[C@H]1O2 (relative stereo) [Example 17]
inhibition in vivo at 100 mg/kg [1]: 33% | LD50 (Acute toxicity, oral): > 1000 mg/kg

Cc1ccc2c(c1)[C@@]1(C)CCC(=O)[C@@H](NC(=O)CCN(C)CCN(C)C)[C@H]1O2 (relative stereo) [Example 18]
inhibition in vivo at 100 mg/kg [1]: 50% | LD50 (Acute toxicity, oral): > 1000 mg/kg

CCN(CC)CCC(=O)N[C@@H]1C(=O)CC[C@]2(C)c3cc(C)ccc3O[C@H]12 (relative stereo) [Example 19]
inhibition in vivo at 100 mg/kg [1]: 33%

CC(=O)N1CCN(CCC(=O)N[C@@H]2C(=O)CC[C@]3(C)c4cc(C)ccc4O[C@H]23)CC1 (relative stereo) [Example 20]
inhibition in vivo at 100 mg/kg [1]: 33% | LD50 (Acute toxicity, oral): > 1000 mg/kg

CCN1CCN(CCC(=O)N[C@@H]2C(=O)CC[C@]3(C)c4cc(C)ccc4O[C@H]23)CC1 (relative stereo) [Example 21]
LD50 (Acute toxicity, oral): > 1000 mg/kg

Cc1ccc2c(c1)[C@@]1(C)CCC(=O)[C@@H](NC(=O)CCCN3CCN(C)CC3)[C@H]1O2 (relative stereo) [Example 22, 8,9bβ-dimethyl-1,2,3,4,4aβ,9b-hexahydro-4α-[4-(4-methylpiperazin-1-yl)-butyramido]-dibenzofuran-3-one]
inhibition in vivo at 100 mg/kg [1]: 72%

Cc1ccc2c(c1)[C@@]1(C)CCC(=O)[C@@H](NC(=O)CCCN(C)C)[C@H]1O2 (relative stereo) [Example 23]
inhibition in vivo at 100 mg/kg [1]: 67%

Cc1ccc2c(c1)[C@@]1(C)CCC(=O)[C@@H](NC(=O)CCCCN(C)C)[C@H]1O2 (relative stereo) [Example 24, 8,9bβ-dimethyl-1,2,3,4,4aβ,9b-hexahydro-4α-[5-N,N-dimethylamino-valeramido]-dibenzofuran-3-one]
inhibition in vivo at 100 mg/kg [1]: 83% | ED50 [1]: 71 mg/kg | antitussive activity (in words) [1]: important antitussive activity

Cc1ccc2c(c1)[C@@]1(C)CCC(=O)[C@@H](NC(=O)CCCCCN(C)C)[C@H]1O2 (relative stereo) [Example 25]
inhibition in vivo at 100 mg/kg [1]: 25%
